Assay: Comparison of the stability: samples sealed and placed at 40° C. for 7 days, then impurities analysed
Type: physicochemical
Settings: for Initial Product Amount: before storage (initial); for Product Amount (after 7 days at 40° C.): sealed
Description: In the present Example, the stabilities of the oily lubiprostone (prepared according to Example 1) and the final products of Example 1 and Example 2 (crystal samples) were tested, and the results of the tests were compared. Oily lubiprostone, the sample of Example 1, and the sample of Example 2 were separately sealed and placed at 40° C. for 7 days. After completion, the amount of the impurities was analyzed.

| SMILES | Initial Product Amount | Product Amount (after 7 days at 40° C.) | stability (conclusion in words) (based on the data of Table 2 (sealed, 40° C., 7 days)) |
| --- | --- | --- | --- |
| CCCCC(F)(F)[C@@]1(O)CCC2[C@@H](CC(=O)[C@@H]2CCCCCCC(=O)O)O1 (single isomer, unassigned; (-)) [Example 1] | 100.0% | 99.9% |  |
| CCCCC(F)(F)[C@@]1(O)CCC2[C@@H](CC(=O)[C@@H]2CCCCCCC(=O)O)O1 (single isomer, unassigned; (-)) [Example 2] | 100.0% | 99.9% |  |
| CCCCC(F)(F)[C@@]1(O)CCC2[C@@H](CC(=O)[C@@H]2CCCCCCC(=O)O)O1 (single isomer, unassigned; (-)) [Oily lubiprostone, reference compound] | 99.9% | 95.8% |  |
| CCCCC(F)(F)[C@@]1(O)CCC2[C@@H](CC(=O)[C@@H]2CCCCCCC(=O)O)O1 (single isomer, unassigned; (-)) [lubiprostone crystal] |  |  | excellent stability |
